Where a SMILES comes first, the peptide text is derived from it. [ ]: non-standard residue; d: D form. The star is where a group is joined. sY = N[C@@H](Cc1ccc(OS(=O)(=O)O)cc1)C(=O)O; Cbz = O=C(OCc1ccccc1)*; Boc = CC(C)(C)OC(=O)*
Tests used:
gastrin = conditions: background, in vitro; cited from earlier work
[1] = target: T1, CCK receptor (brain, cerebral cortex) (Cavia porcellus, UniProt H0VZC5); assay: 125I-CCK-33 receptor binding (brain) method; design: species or system guinea pig (male Hartley); conditions: 125I-CCK-33, guinea pig cerebral cortex, 25° C., 2 hours
T1 construct: The cerebral cortex was dissected and used as a receptor source; from tissue; host or cells: cerebral cortex of male Hartley guinea pigs, membrane homogenate
T1 sequence (H0VZC5 1-426): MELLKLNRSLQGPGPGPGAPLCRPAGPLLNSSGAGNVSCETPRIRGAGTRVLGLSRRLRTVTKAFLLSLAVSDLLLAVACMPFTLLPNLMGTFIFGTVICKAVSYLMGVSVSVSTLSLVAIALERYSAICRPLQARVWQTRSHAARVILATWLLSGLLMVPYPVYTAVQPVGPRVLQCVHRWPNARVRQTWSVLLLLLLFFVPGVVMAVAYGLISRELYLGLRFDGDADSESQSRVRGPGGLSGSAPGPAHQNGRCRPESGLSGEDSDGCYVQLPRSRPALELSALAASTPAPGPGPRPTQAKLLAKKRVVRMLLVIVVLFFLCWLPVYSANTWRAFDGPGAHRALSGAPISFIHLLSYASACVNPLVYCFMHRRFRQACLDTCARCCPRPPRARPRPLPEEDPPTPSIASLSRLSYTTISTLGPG
Excerpt: (§1) Screening of the novel compounds according to the present invention to determine biological activity and obtain an IC50 value for them, in order to identify significant CCK-antagonism, may be accomplished using an ^125 I-CCK receptor binding assay and in vitro isolated tissue preparations. To identify significant gastrin antagonism, ^125 I-gastrin and ^3 H-pentagastrin binding assays are used. These tests involve the following:
CCK receptor binding (brain) method
CCK-33 was radiolabeled and the binding was performed according to the description for the pancreas method, with modifications according to Saito et al., J. Neurochem., 37, 483-490, 1981.
Male Hartley guinea pigs (300-500 g) were sacrificed by decapitation, and the brains were removed and placed in ice-cold 50 mM Tris HCl plus 7.58 g/l Trizma-7.4 [pH 7.4 at 25° C.]. The cerebral cortex was dissected and used as a receptor source and each gram of fresh guinea pig brain tissue was homogenized in 10 ml of Tris/Trizma buffer with a Brinkmann polytron PT-10. The homogenates were centrifuged at 42,000 g for 15 minutes, then the resulting pellets were resuspended in 200 volumes of binding assay buffer (10 mM N-2-hydroxy-ethyl-piperazine-N'-2-ethane-sulfonic acid (HEPES), pH 7.7 at 25° C., 5 mM MgCl2, 1 mM ethyl glycol-bis-(β-amino-ethyl-ether-N,N'-tetraacetic acid (EGTA), 0.4% BSA (bovine serum albumin) and 0.25 mg/ml bacitracin, pH 6.5).
The remainder of the binding assay method was as described for the pancreas method, except that the reaction mixtures were incubated at 25° C. for 2 hours before centrifugation.

[2] = target: T2, Gastrin receptor (gastric glands) (Cavia porcellus, UniProt H0VZC5); assay: 125I-gastrin receptor binding in guinea pig gastric glands; design: species or system guinea pig (male Hartley); conditions: 25° C., 30 minutes
T2 construct: Gastric mucosa from male Hartley guinea pigs (300-500 g body weight); from tissue; host or cells: isolated gastric mucosal glands of male Hartley guinea pigs
T2 sequence (H0VZC5 1-426): T1 sequence (H0VZC5 1-426)
Excerpt: as §1
Gastrin Receptor Binding in Guinea Pig Gastric Glands
Guinea pig gastric mucosal glands were prepared by the procedure of Berglingh and Obrink, Acta Physiol. Scand. 96: 150 (1976), with a slight modification according to Praissman et al. C. J. Receptor Res. 3: (1983). Gastric mucosa from male Hartley guinea pigs (300-500 g body weight) were washed thoroughly and minced with fine scissors in standard buffer consisting of the following: 130 mM NaCl, 12 mM NaHCO3, 3 mM NaH2 PO4, 3 mM Na2 HPO4, 3 mM K2 HPO4, 2 mM MgSO4, 1 mM CaCl2, 5 mM glucose and 4 mM L-glutamine, 25 mM HEPES at pH 7.4. […]
The washed guinea pig gastric glands were resuspended in 25 ml of standard buffer containing 0.25 mg/ml of bacitracin. […] The radioactivity of the filters was measured using a Beckman gamma 5500 for ^125 I-gastrin or liquid scintillation counting for ^3 H-pentagastrin.

CCK receptor = conditions: background, structure-function studies; cited from earlier work
CCK receptor (pancreas) = target: T3, CCK receptor (pancreas) (Rattus norvegicus, UniProt P30551); assay: 125I-CCK-33 receptor binding (pancreas) method; design: species or system rat (male Sprague-Dawley); conditions: protease inhibitors added to binding assay buffer
T3 construct: The whole pancreas of a male Sprague-Dawley rat (200-350 g); from tissue; host or cells: whole pancreas of male Sprague-Dawley rat, membrane homogenate
T3 sequence (P30551 1-444): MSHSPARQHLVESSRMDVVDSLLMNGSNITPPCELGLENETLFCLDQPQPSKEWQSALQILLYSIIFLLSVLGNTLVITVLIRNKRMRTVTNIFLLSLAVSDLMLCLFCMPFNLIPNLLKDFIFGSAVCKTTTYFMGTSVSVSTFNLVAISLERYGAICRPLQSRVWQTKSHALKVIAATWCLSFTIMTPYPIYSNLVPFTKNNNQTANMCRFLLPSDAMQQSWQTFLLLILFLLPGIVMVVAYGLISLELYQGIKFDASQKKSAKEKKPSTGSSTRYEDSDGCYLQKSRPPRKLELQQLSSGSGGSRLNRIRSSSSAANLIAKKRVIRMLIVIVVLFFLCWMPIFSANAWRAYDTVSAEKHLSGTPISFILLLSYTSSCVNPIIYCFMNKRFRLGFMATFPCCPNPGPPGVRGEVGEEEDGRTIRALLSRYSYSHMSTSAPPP
Excerpt: as §1, with “To identify significant gastrin antagonism, ^125 I-gastrin and ^3 H-pentagastrin binding assays are used.” left out
CCK receptor binding (pancreas) method
CCK-33 was radiolabeled with ^125 I-Bolton Hunter reagent (2000 Ci/mmole), as described by Sankara et al. (J. Biol. Chem., 254, 9349-9351, 1979).
The whole pancreas of a male Sprague-Dawley rat (200-350 g), which had been sacrificed by decapitation, was dissected free of fat tissue and homogenized in 20 volumes of ice-cold 50 mM Tris HCl (pH 7.7 at 25° C.) with a Brinkmann Polytron PT-10. The homogenates were centrifuged at 48,000 g for 10 minutes, then the resulting pellets were resuspended in Tris Buffer, centrifuged as above, and resuspended in 200 volumes of binding assay buffer (50 mM Tris HCl, pH 7.7 at 25° C., 5 mM dithiothreitol, 0.1 mM bacitracin, 1.2 mM phenylmethane sulfonyl fluoride and 0.5 mM o-phenanthroline).
The supernatant was aspirated and discarded, and the pellets were counted with a Beckman Gamma 5000.

Row | IC50 [1] | Compound | CCK antagonism (in words) (CCK receptor) | also measured
1 | – | CCCN(CCC)C(=O)C(CCC(=O)O)NC(=O)c1ccccc1 (racemic) [Compound 1, reference compound] | – | gastrin antagonism (in words) (gastrin): very weak in vitro antagonists
2 | 2.2 µM | CCCCCN(CCCCC)C(=O)C(CCC(=O)O)NC(=O)c1ccc(Cl)c(Cl)c1 (racemic) [Compound 2, reference compound] | – | –
3 | 5.3 µM | CCCCCN(CCCCC)C(=O)C(CCC(=O)OCc1ccccc1)NC(=O)Nc1ccc(Cl)cc1 (racemic) [Compound 8, (RS)-4-[(4-chlorophenylaminocarbonyl)amino]-5-(dipentylamino)-5-oxo-1-(phenylmethyloxy)pentanoic acid] | – | IC50 [2]: 22 µM
4 | – | CSCC[C@H](NC(=O)OC(C)(C)C)C(=O)N[C@@H](CC(=O)O)C(=O)N[C@@H](Cc1ccccc1)C(N)=O [Boc-Met-Asp-Phe-NH2] (Boc-Met-Asp-Phe-NH2) | can function as CCK antagonists | –
5 | – | CSCC[C@H](NC(=O)[C@H](Cc1ccc(OS(=O)(=O)O)cc1)NC(=O)OCc1ccccc1)C(=O)NCC(=O)N[C@@H](Cc1c[nH]c2ccccc12)C(=O)N[C@@H](CCSC)C(=O)N[C@@H](CC(=O)O)C(N)=O [Cbz-Tyr(SO3 H)-Met-Gly-Trp-Met-Asp-NH2] (Cbz-[sY]MGWMD-NH2) | partial agonist | –
6 | 3.4 µM | O=C(O)CC[C@@H](NC(=O)c1cc2ccccc2[nH]1)C(=O)N(C1CCCCC1)C1CCCCC1 [Compound 10, (R)-5-(dicyclohexylamino)-4[(1H-indol-2-ylcarbonyl)amino]-5-oxo-pentanoic acid] | – | IC50 [2]: 4.1 µM
7 | – | CSCC[C@H](N)C(=O)N[C@@H](CC(=O)O)C(=O)N[C@@H](Cc1ccccc1)C(N)=O [Met-Asp-Phe-NH2] (H-Met-Asp-Phe-NH2) | can function as CCK antagonists | –
8 | – | CCCC(=O)Nc1nc2c(ncn2[C@@H]2O[C@@H]3COP(=O)(O)O[C@H]3[C@H]2OC(=O)CCC)c(=O)[nH]1 [dibutyryl cyclic GMP] | most potent | –
9 | – | c1cnc2c(c1)ccc1cccnc12 [o-phenanthroline] | – | effect on the 125I-CCK receptor binding assay (in words) (CCK receptor (pancreas)): no effect
10 | – | O=S(=O)(F)Cc1ccccc1 [phenylmethane sulfonyl fluoride] | – | effect on the 125I-CCK receptor binding assay (in words) (CCK receptor (pancreas)): no effect
